Measurements: PMC11303286, “In silico and in vitro chemometrics, cell toxicity and permeability of naringenin 8-sulphonate and derivatives” (Frontiers in Pharmacology, 2024)

What was measured:
Caco-2 cells = details: ref Tian et al., 2009; cited from earlier work
[1] = system: Caco-2 human intestinal epithelial cells; assay: Alkaline comet assay (DNA damage), Caco-2; details: for percentage of DNA in tail, first quartile / percentage of DNA in tail, third quartile / percentage of DNA in tail, median: Caco-2, 100 μM, 24 h; for percentage of DNA in tail, median: negative control 20.98; for genotoxicity: DNA fragmentation: Caco-2, alkaline comet assay, 100 μM
Description: Caco-2 cells were incubated for 24 h in 12 well plates at a density of 350,000 cells/well. After this, they were incubated with each sample and negative control for 24 h and collected using 500 μL of trypsin (0.25%)-ethylenediaminetetraacetic acid (EDTA) (0.038%), which was then inactivated with 1 mL of Hanks’ Balanced Salt Solution (HBSS). The cell suspension was centrifuged at 1,200 rpm during 8 min at room temperature, supernatant was discarded, and cells were resuspended in 100 μL of HBSS.
Electrophoresis was carried out to evaluate the extent of DNA fragmentation. For this, agarose-coated slides were prepared using an 1% agarose solution. A volume of 20 μL from the cell suspension was involved in 170 μL of 1% low gelling temperature agarose solution and applied to the slides, which were then placed at 4°C until solidification. Slides were submerged in a lysis solution (2.5 M NaCl, 0.1 M EDTA, 10 mM Tris-HCl, pH 10) with 1% Triton-X 100, at 4°C and sheltered from the light, for 105 min. After this, slides were submerged in the electrophoresis buffer (300 mM NaOH, 1 mM EDTA, pH 13) for 40 min. A Sub-Cell GT Horizontal Electrophoresis System 15 × 15 cm tray (Bio-Rad Laboratories Lda, Oeiras, Portugal) was used to run the electrophoresis at 25 V and 240 mA during 30 min in the dark. In the end of the electrophoresis, slides were submerged for three times in a neutralization solution (0.4 M Tris-HCl, pH 7.5), during 5 min each.
For the fluorescence microscopy analysis, DAPI was added for 15 min at 0.5 μg mL^-1, the slides being washed once with HBSS in the end. Images were acquired using a Nikon Eclipse Ts2R-FL inverted microscope with a Retiga R1 camera (01-RET-R1-RM) and CFI Plan Fluor ×10 DIC objective. DNA damage was calculated using the AutoComet algorithm ([Barbe et al., 2023]) by dividing the amount of fluorescence signal correspondent to the DNA content in the comet’s tail by the signal correspondent to the total DNA in the comet. MMS 500 μM, incubated for 30 min, was used as positive control for DNA fragmentation and consequent DNA tail formation.
Comet assay was performed to evaluate possible genotoxicity of compounds. […] The percentage of DNA in the tail may be used as a parameter to evaluate the damage on DNA ([Clementi et al., 2021]).

[2] = system: HaCaT human keratinocyte cells; assay: MTT cell viability assay, HaCaT; type: cell-based; details: 24 h, compared to control
Description: (§1) MRC-5 human lung fibroblast cells (Sigma-Aldrich, St. Louis, MO, United States) were cultured in MEM, while HaCaT human keratinocyte cells (ATCC, Manassas, VA, United States) and Caco-2 human intestinal epithelial cells (American Type Culture Collection, LGC Standards S.L.U., Spain) were cultured in DMEM. Both medium were supplemented with 10% of FBS and 1% of penicillin/streptomycin. Cells were incubated in 75 cm^2 cell culture flasks, which were placed in an incubator at 37°C, with a humidified atmosphere of 5% CO2. For the experiments, cells were seeded for 24 h in 96-well plates. MRC-5 and Caco-2 were seeded at 20,000 cells/well and HaCaT were seeded at 15,000 cells/well.
(§2) Toxicity of compounds, at 50 and 100 μM, was assessed against non-cancerous cell lines through the MTT assay after 24 h of incubation, following the protocol described in [Macedo et al., (2023)], with slight modifications. Thus, cells were exposed to MTT for 2 h, in the case of MRC-5, and 1 h 30 min, in the case of HaCaT. This assay was also performed to evaluate the response of Caco-2 cells to compounds at concentrations from 125 to 1,000 μM during the permeability assay, these cells being incubated for 4 h with the samples and exposed to MTT for 2 h. Results were expressed as percentage of viability compared to the control and correspond to the mean of, at least, three independent experiments performed in triplicate.

Caco-2 cell monolayers = assay: Caco-2 permeability assay (Transwell); type: in vitro ADME, human; details: for P app, experimental: Caco-2 permeability model, 1,000 μM, 240 min time point; for percentage of the amount placed in the apical chamber found in the basolateral chamber: after 240 min, 1,000 μM, apical to basolateral; for P app class, experimental: classification ref Karakucuk et al., 2021
Description: (§3) Caco-2 cells were seeded for 21 days at 112,000 cells/well in Corning® 3460 Transwell® 12 mm Polyester Membrane Inserts (Corning Incorporated, ME, United States). At every other day, culture medium was replaced and the transepithelial electrical resistance was measured to ensure values above 400 ohms until the day of the assay, to guarantee membrane integrity. For quality control purposes, Lucifer Yellow was used at 100 μg mL^-1 in the day of the assay. Briefly, one of the inserts was incubated with Lucifer Yellow during 1 h and, after that, its concentration was measured in the basolateral chamber, based on fluorescence intensity (λexc = 485 nm and λem = 535 nm). Lucifer Yellow passage, from the apical to the basolateral chamber equal or lower than 3% was considered indicative of a well-defined cell barrier phenotypically translated as good membrane integrity.
(§4) Treatments were applied in the transwells apical chamber and the basolateral chamber was filled with HBSS with calcium (1.26 mM) and magnesium (0.81 mM). At specific timepoints, namely 10, 20, 30, 60, 90, 120 and 180 min, half of the volume from the basolateral chamber was collected and replaced by the same volume of HBSS. In the last time point, at 240 min, content of both apical and basolateral compartments was collected to calculate the final mass balance. Transwells were maintained in agitation at 50 rpm, 37°C and 5% CO2 between the timepoints.
(§5) Concentration of each analyte in the different compartments was determined by HPLC-DAD using a Gilson Medical Electronics HPLC system (Villiers le Bel, France), with a Spherisorb ODS® (250 × 4.6 mm, 5 μm particle size, 100 Å pore size) column (PSS831915, Waters, Dublin, Ireland). Elution was performed for 7 min, with a flow rate of 900 μL min^-1. A mixture of methanol: water-formic acid (1%) was used as mobile phase, in a proportion of 65:35 for naringenin and 47:53 for naringenin 4’-O-sulphate and naringenin 8-sulphonate. Quantifications were performed at 285 nm.
(§6) Results were obtained from three independent experiments and each sample was analysed in triplicate. Apparent permeability (P app ) coefficient (cm s^-1) was calculated based on the equation P app = ΔQ/Δt×(1/(A×C0)), where ΔQ/Δt represents the amount of compound over time (mol s^-1), A is the monolayer area (cm^2) and C0 (mol mL^-1) is the initial drug concentration of the apical side ([Nait et al., 2009]; [Silva et al., 2020]).

[3] = system: Caco-2 human intestinal epithelial cells; assay: MTT cell viability assay, Caco-2 (before permeability assay); type: cell-based; details: Caco-2, 4 h, concentrations until 1,000 μM
Description: as §1, §2
The ability of naringenin 8-sulphonate to cross biological barriers was tested using a Caco-2 permeability model. The first step for this assay was to test the possible impact of high concentrations of samples in Caco-2 cells during the time of the experiment. Thus, an MTT assay, using concentrations of naringenin, naringenin 4’-O-sulphate and naringenin 8-sulphonate until 1,000 μM, was performed.

[4] = system: MRC-5 human lung fibroblast cells; assay: MTT cell viability assay, MRC-5; type: cell-based; details: 24 h; for cell viability: compared to control
Description: as §1, §2

[5] = MTT cell viability assay, HaCaT; type: cell-based, human; details: human, HaCaT keratinocyte cells, compared to control
Description: as §1, §2

[6] = Caco-2 permeability assay (Transwell); type: in vitro ADME, human; details: human; Caco-2 permeability model, 1,000 μM, 240 min time point; read-out: P app, experimental
Description: as §3, §4, §5, §6

[7] = MTT cell viability assay, MRC-5; type: cell-based, human; details: human, MRC-5 lung fibroblast cells, MRC-5, 100 μM, compared to control
Description: as §1, §2

[8] = system: human umbilical vein endothelial cells (HUVECs); set-up: method as in earlier work; details: ref Çeker et al., 2019; cited from earlier work
PC-12 = system: PC-12; set-up: method as in Kocyigit et al., 2016; details: ref Kocyigit et al., 2016; cited from earlier work
HT29 cells = system: HT29 cells; set-up: method as in Baranowska et al., 2021; details: concentrations up to 100 μM; ref Baranowska et al., 2021; cited from earlier work
MCF-7 = system: MCF-7; set-up: method as in Kocyigit et al., 2016; details: ref Kocyigit et al., 2016; cited from earlier work
HT-29 = system: HT-29; set-up: method as in Kocyigit et al., 2016; details: ref Kocyigit et al., 2016; cited from earlier work
L-929 = system: L-929; set-up: method as in Kocyigit et al., 2016; details: ref Kocyigit et al., 2016; cited from earlier work

Compound	reported P app (Caco-2 cells) [cm/s]	percentage of DNA in tail, first quartile [1] [%]	percentage of DNA in tail, third quartile [1] [%]	percentage of DNA in tail, median [1] [%]	genotoxicity: DNA fragmentation [1]	P app, experimental (Caco-2 cell monolayers) [cm/s]	percentage of the amount placed in the apical chamber found in the basolateral chamber (Caco-2 cell monolayers) [%]	P app class, experimental (Caco-2 cell monolayers)	changes on cell viability [3]	viability at 24 h, 50 µM [5] [%]	viability at 24 h, 100 µM [5] [%]	Papp A→B at 240 min, 1000 μM [6] [×10⁻⁶ cm/s]	also measured
O=c1c(O)c(-c2cc(O)c(O)c(O)c2)oc2cc(O)cc(O)c12 [myricetin]	1.7e-06												
O=c1c(O)c(-c2ccc(O)cc2O)oc2cc(O)cc(O)c12 [morin]	6.2e-07												
O=C1C[C@@H](c2ccc(O)cc2)Oc2c1c(O)cc(O)c2S(=O)(=O)O [naringenin 8-sulphonate]		7.25	66.61	31.18	caused significant DNA fragmentation	2.68e-06	10.41	→ (moderate P app)	no significant changes on cell viability				cell viability ([2]; 50 μM): 92.99%; cell viability ([2]; 100 μM): 91.95%; cell viability ([4]; MRC-5, 50 μM): 94.77%; cell viability ([4]; MRC-5, 100 μM): 94.71%
O=C1C[C@@H](c2ccc(OS(=O)(=O)O)cc2)Oc2cc(O)cc(O)c21 [naringenin 4’-O-sulphate]		4.33	33.90	15.89	did not	3.45e-06	12.73	→ (moderate P app)	no significant changes on cell viability	95.4	89.2	3.45	viability at 24 h, 100 µM [7]: 81.5%
O=C1C[C@@H](c2ccc(O)cc2)Oc2cc(O)cc(O)c21 [naringenin]		14.24	63.36	33.07	caused significant DNA fragmentation	8.29e-06	32.01	→ (moderate P app)	no significant changes on cell viability	93.2	91.9	8.29	concentration causing the best antigenotoxic effects [8]: 8 µM; concentrations causing DNA damage [8]: ≥ 50 µM; DNA damage (PC-12): able to cause DNA damage; impact on DNA integrity (HT29 cells): no impact on DNA integrity; DNA damage (MCF-7): able to cause DNA damage; DNA damage (HT-29): able to cause DNA damage; effect on cell viability ([4]; MRC-5, 50 and 100 μM): did not elicit any significant decrease; DNA damage (L-929): able to cause DNA damage
